Among the test systems are CCRF-CEM; COLO 205; HCC 2998; HL-60; HOP-62; K562; KM12; LOX IMVI; MDA-MB-231; MOLT-4; NCI/ADR-RES; OVCAR-5; RXF 393; SF-268; SK-OV-3; SN12C; SR; SW-620; TK-10; UO-31.
Experiment in all cases: inhibition of tumour cell growth, NCI panel, 48 h

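Protocol summary: plate cells (96-well), add compound at 5 concentrations, incubate 48 h, interpolate endpoints linearly. Abbreviation: GI50, concentration required for 50% inhibition of growth.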 Active and inactive are the calls of the source. Rule as the data show it: active = GI50 up to about 1.1 µM and inactive = higher.

`CCOC(=O)Nc1ccc(S(=O)(=O)Nn2cnnc2)cc1`: the GI50 with CCRF-CEM is 23.9 µM (inactive); in the experiment with COLO 205 it was 39.9 µM (inactive); with HCC 2998 it was 33.8 µM (inactive); in the experiment with HL-60 it was 38 µM (inactive); in the experiment on HOP-62, 51.6 µM (inactive); in the experiment on K562, 27.2 µM (inactive). In addition, the GI50 with KM12 is 36.2 µM (inactive); in the experiment with LOX IMVI it was 69.3 µM (inactive); in the experiment with MDA-MB-231 it was 76.6 µM (inactive); in the experiment with MOLT-4, 50.7 µM (inactive); with NCI/ADR-RES, 37.1 µM (inactive); with OVCAR-5 it was > 100 µM (inactive). The GI50 with RXF 393 is > 100 µM (inactive); in the experiment on SF-268 it was 83.2 µM (inactive); with SK-OV-3, 62.7 µM (inactive); in the experiment with SN12C it was 53.1 µM (inactive); with SR, 23.9 µM (inactive); with SW-620, 33.3 µM (inactive). Also, the GI50 is 85.5 µM (inactive) in the experiment with TK-10 and 60.1 µM (inactive) in the experiment with UO-31.

As to `COc1c(Cl)c(=O)oc2ccc(Cl)cc12`, the GI50 in the experiment with CCRF-CEM, in the experiment on COLO 205, with HCC 2998, with HL-60, in the experiment on HOP-62 and with K562 was > 100 µM (inactive) in each case. Moreover, the GI50 with KM12, in the experiment on LOX IMVI, in the experiment on MDA-MB-231, in the experiment on MOLT-4, with NCI/ADR-RES and in the experiment on OVCAR-5 was > 100 µM (inactive) in each case. In addition, the GI50 with RXF 393, in the experiment on SF-268, with SK-OV-3, in the experiment on SN12C, in the experiment on SR and with SW-620 was > 100 µM (inactive) in each case. Also, the GI50 with TK-10 and in the experiment with UO-31 was > 100 µM (inactive) throughout.

In the case of `NC(=O)[N+](=CC(=S)Nc1ccccc1Cl)C(N)=O`, the GI50 in the experiment on CCRF-CEM, with COLO 205, in the experiment with HCC 2998, in the experiment with HL-60, in the experiment on HOP-62 and in the experiment on K562 was > 100 µM (inactive) each time. Also, the GI50 in the experiment with KM12, in the experiment on LOX IMVI, with MDA-MB-231, in the experiment on MOLT-4, in the experiment with NCI/ADR-RES and in the experiment on OVCAR-5 was > 100 µM (inactive) each time. Also, the GI50 in the experiment with RXF 393 is > 100 µM (inactive); with SF-268 it was > 100 µM (inactive); in the experiment on SK-OV-3, > 100 µM (inactive); in the experiment on SN12C, > 100 µM (inactive); with SR, 28.7 µM (inactive); in the experiment on SW-620 it was > 100 µM (inactive). For the same compound, the GI50 in the experiment on TK-10 and with UO-31 was > 100 µM (inactive) each time.

In the case of `CCOC(=O)CC(C)C(C#N)(OP1(=O)OC(c2ccccc2)C(C)N1C)c1ccccc1` (stereo not given), the GI50 with CCRF-CEM was 29.9 µM (inactive); with COLO 205, 18.5 µM (inactive); in the experiment with HCC 2998 it was 36 µM (inactive); in the experiment on HL-60, 34.9 µM (inactive); in the experiment with HOP-62, > 100 µM (inactive); in the experiment on K562 it was 32.1 µM (inactive). In addition, the GI50 in the experiment on KM12 was 45.8 µM (inactive); in the experiment with LOX IMVI, 55.3 µM (inactive); in the experiment with MDA-MB-231, 59.7 µM (inactive); in the experiment with MOLT-4, 28.8 µM (inactive); with NCI/ADR-RES, 39.5 µM (inactive); in the experiment with OVCAR-5, > 100 µM (inactive). The GI50 in the experiment on RXF 393 is 67.5 µM (inactive); in the experiment on SF-268 it was > 100 µM (inactive); in the experiment on SK-OV-3, 86.7 µM (inactive); in the experiment on SN12C, 58.9 µM (inactive); with SR, 48.6 µM (inactive); in the experiment on SW-620, 54.7 µM (inactive). Further, the figures for the GI50 with TK-10 and in the experiment on UO-31 were 68.7 µM (inactive) and 35.4 µM (inactive), respectively.

For the compound `CC[C@@]1(O)C(=O)OCc2c1cc1n(c2=O)Cc2c-1nc1ccccc1c2/C=N\NC(=O)C(N)CCSC` (stereo not given in full), the GI50 with CCRF-CEM is < 0.01 µM (active); in the experiment with COLO 205, 1.24 µM (inactive); in the experiment with HCC 2998, 0.336 µM (active); with HL-60, < 0.01 µM (active); with HOP-62 it was < 0.01 µM (active); in the experiment with K562, 0.0109 µM (active). Further, the GI50 with KM12 is 0.254 µM (active); in the experiment on LOX IMVI, < 0.01 µM (active); in the experiment with MDA-MB-231, 1.24 µM (inactive); in the experiment with MOLT-4, < 0.01 µM (active); in the experiment on NCI/ADR-RES, 0.0395 µM (active); in the experiment on OVCAR-5, 0.774 µM (active). For the same compound, the GI50 was < 0.0146 µM (active) in the experiment with RXF 393; < 0.01 µM (active) in the experiment with SF-268; < 0.0127 µM (active) in the experiment on SK-OV-3; < 0.01 µM (active) with SN12C; < 0.01 µM (active) in the experiment with SR; 0.0883 µM (active) in the experiment with SW-620. In addition, the GI50 in the experiment with TK-10 was 6.4 µM (inactive); in the experiment with UO-31, < 0.0104 µM (active).

In the case of `CCOC(=O)c1ccc(Nc2cnc3ccc(C(F)(F)F)cc3n2)cc1`, the GI50 with CCRF-CEM is 12.1 µM (inactive); in the experiment with COLO 205, 15.3 µM (inactive); with HCC 2998, 12.9 µM (inactive); in the experiment on HL-60, 15.9 µM (inactive); with HOP-62 it was 20.6 µM (inactive); with K562 it was 19 µM (inactive). In addition, the GI50 is 13.1 µM (inactive) in the experiment on KM12; 15.8 µM (inactive) in the experiment on LOX IMVI; 23.4 µM (inactive) in the experiment on MDA-MB-231; 3.63 µM (inactive) in the experiment with MOLT-4; 12.8 µM (inactive) with NCI/ADR-RES; 24.9 µM (inactive) in the experiment with OVCAR-5. In addition, the GI50 in the experiment on RXF 393 is 8.18 µM (inactive); in the experiment on SF-268 it was 12.6 µM (inactive); in the experiment with SK-OV-3 it was 35.9 µM (inactive); in the experiment with SN12C, 13.9 µM (inactive); with SR, 10.3 µM (inactive); with SW-620, 15.2 µM (inactive). For the same compound, the GI50 with TK-10 was 12.3 µM (inactive); in the experiment on UO-31, 20.1 µM (inactive).

For the compound `Cc1cc(=O)oc2cc(O)ccc12` [HYMECROMONE], the GI50 in the experiment on CCRF-CEM, in the experiment with COLO 205, with HCC 2998, in the experiment with HL-60, in the experiment with HOP-62 and in the experiment with K562 was > 100 µM (inactive) throughout. Moreover, the GI50 in the experiment on KM12, in the experiment with LOX IMVI, with MDA-MB-231, with MOLT-4, with NCI/ADR-RES and with OVCAR-5 was > 100 µM (inactive) each time. In addition, the GI50 in the experiment with RXF 393 was > 100 µM (inactive); in the experiment with SF-268 it was > 100 µM (inactive); in the experiment with SK-OV-3, > 100 µM (inactive); in the experiment on SN12C, > 100 µM (inactive); in the experiment with SR it was 69 µM (inactive); in the experiment with SW-620 it was > 100 µM (inactive). The GI50 in the experiment on TK-10 and in the experiment on UO-31 was > 100 µM (inactive) each time.
